By IC50 is commonly meant the midpoint of a concentration-inhibition curve. Read a low IC50 as inhibition by little substance.

The test system of assay [1] is Mus musculus. The assay is described as follows: Effect on salivation in mice, after intraperitoneal administration of 10 mg/kg, activity expressed as a score using a scale of 0-2. The format is functional.
The target of assay [2] is T1, Muscarinic acetylcholine receptor M1 (Rattus norvegicus, UniProt P08482).
T1 sequence (P08482 whole entry): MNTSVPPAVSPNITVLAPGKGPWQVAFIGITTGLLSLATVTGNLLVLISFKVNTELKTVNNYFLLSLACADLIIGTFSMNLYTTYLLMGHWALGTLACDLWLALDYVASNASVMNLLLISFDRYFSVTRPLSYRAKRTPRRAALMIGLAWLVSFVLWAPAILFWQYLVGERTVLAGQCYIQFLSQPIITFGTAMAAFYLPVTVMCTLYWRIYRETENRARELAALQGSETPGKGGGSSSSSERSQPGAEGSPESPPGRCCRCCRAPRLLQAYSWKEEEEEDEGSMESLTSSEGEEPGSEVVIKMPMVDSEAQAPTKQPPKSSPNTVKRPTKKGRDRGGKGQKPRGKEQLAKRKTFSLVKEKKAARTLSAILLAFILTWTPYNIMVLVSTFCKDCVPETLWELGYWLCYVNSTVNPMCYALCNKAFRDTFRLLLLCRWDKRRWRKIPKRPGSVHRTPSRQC
Briefly: Binding activity against muscarinic acetylcholine receptor M1 in rat brain, using [3H]OXO-M as the radioligand. The format is tissue-based.

In assay [3] the target is T1, Muscarinic acetylcholine receptor M1. The assay is described as follows: Binding activity against muscarinic acetylcholine receptor M1 in rat brain, using [3H]-Pz as the radioligand. The format is tissue-based.
The test system of assay [4] is A9. Briefly: Stimulating PI (phosphoinositol) hydrolysis in A9L-m1 cells. The format is functional, Mus musculus.
In assay [5] the test system is Mus musculus. Briefly: Minimum effective dose after ip administration, to stimulate salivation in mice. The format is functional. The settings on record: read-out: MED.

Compound `CCCCCOc1nccnc1C1CN2CCC1CC2` (stereo not given) yielded a Score in assay [1] of 0.2. In addition, the values for the concentration for half-maximal inhibition (IC50) in assay [2] and in assay [3] were 0.006 µM and 0.007 µM, respectively. This compound also came in with a Max in assay [4] of 32%.

Compound `CCCCCCSc1nccnc1C1CN2CCC1CC2` (stereo not given) returned a Score in assay [1] of 0. In addition, the IC50 was found to be 0.002 µM in assay [2] and 0.0022 µM in assay [3]. For the same compound, the Max in assay [4] is on record as 16%.

In the case of `CCCCCCOc1nccnc1C1=CCCN(C)C1`, the Score in assay [1] is 0. In assay [4], this compound returned a Max of 12%.

In assay [1], `CCCCOc1nccnc1C1CN2CCC1CC2` (stereo not given) gave a Score of 0. For the same compound, the half-maximal inhibitory concentration (IC50) came out at 0.005 µM in assay [2] and 0.01 µM in assay [3]. Besides, the Max in assay [4] came out at 15%.

In assay [1], `CCCCCCCOc1nccnc1C1CN2CCC1CC2` (stereo not given) gave a Score of 0. Also, the results for the IC50 in assay [2] and in assay [3] were 0.01 µM and 0.013 µM, respectively. Further, the Max in assay [4] came to 35%.

For `CCCCCCOc1nccnc1C1CN2CCC1CC2` (stereo not given), in assay [1], the Score is reported as 0. Also, the IC50 in assay [2] came to 0.0045 µM; in assay [3], 0.006 µM. This compound showed a Max in assay [4] of 40%.

`CCCCSc1nccnc1C1CN2CCC1CC2` (stereo not given) had a Score in assay [1] of 0. Further, the IC50 came out at 0.0005 µM in assay [2] and 0.0004 µM in assay [3]. The compound further registered a Max in assay [4] of 5%.

Take `CCCOc1nccnc1C1CN2CCC1CC2` (stereo not given): the Score in assay [1] is reported as 0. Besides, the results for the IC50 in assay [2] and in assay [3] were 0.009 µM and 0.019 µM, respectively. Besides, the Max in assay [4] is recorded as 4%.

Regarding `Cc1nccnc1C1CN2CCC1CC2` (stereo not given), the Score in assay [1] worked out at 2. The IC50 in assay [2] is 0.023 µM; in assay [3], 0.08 µM. For the same compound, in assay [5], the minimal effective dose stood at 3 mg/kg. In assay [4], the Max amounted to 4%.

In assay [1], `COC(=O)C1=CCCN(C)C1` [ARECOLINE] had a Score of 0. Moreover, in assay [4], the Max amounted to 73%.

On to `CCCCCCOc1nccnc1[C@@H]1CN2CCC1C2` (stereo not given in full), for which, in assay [1], the Score is listed as 0.6. Moreover, the IC50 in assay [2] was determined as 0.046 µM; in assay [3], 0.058 µM. Also, the Max in assay [4] is on record as 31%.

In assay [1], `CCOc1nccnc1C1CN2CCC1CC2` (stereo not given) came in with a Score of 0. For the same compound, the IC50 in assay [2] was 0.023 µM; in assay [3] it was 0.038 µM. Also, the Max in assay [4] is listed as 1%.

In assay [1], `CCCCCCOc1nsnc1C1=CCCN(C)C1` [XANOMELINE] returned a Score of 0. In addition, the Max in assay [4] came to 55%.

`CCCCCCOc1nccnc1C1=CCCCN(C)C1` returned a Score in assay [1] of 0. Also, the concentration for half-maximal inhibition (IC50) came to 0.117 µM in assay [2] and 0.026 µM in assay [3]. In addition, in assay [4], the Max is 2%.

On to `C[N+](C)(C)CC#CCOC(=O)Nc1cccc(Cl)c1.[Cl-]`, for which, in assay [4], the Max turned out to be 52%.

`Clc1cncc(C2CN3CCC2CC3)n1` (stereo not given) yielded a Score in assay [1] of 1. Further, the half-maximal inhibitory concentration (IC50) in assay [2] stood at 0.0046 µM; in assay [3] it was 0.0047 µM. The minimal effective dose in assay [5] turned out to be 3 mg/kg. In assay [4], this compound came in with a Max of 8%.

In turn, `CCCCCCOc1nccnc1[C@H]1CN2CCCC1C2` (stereo not given in full) returned a Score in assay [1] of 0. The figures for the half-maximal inhibitory concentration (IC50) in assay [2] and in assay [3] were 0.004 µM and 0.0025 µM, respectively. Further, the Max in assay [4] was 12%.

In turn, `CCCCCCOc1nccnc1[C@H]1CN2CCC1C2` (stereo not given in full) came in with a Score in assay [1] of 1.6. For the same compound, the values for the half-inhibitory concentration (IC50) in assay [2] and in assay [3] were 0.0056 µM and 0.007 µM, respectively. Further, the minimal effective dose in assay [5] stood at 1 mg/kg. The compound further displayed a Max in assay [4] of 40%.

As to `CCCCCCOc1nccnc1[C@H]1CN2CCC1CC2`, in assay [1], the Score came out at 0. Moreover, the values for the IC50 in assay [2] and in assay [3] were 0.0113 µM and 0.0106 µM, respectively. For the same compound, the Max in assay [4] turned out to be 46%.

Take `CCCCCCOc1nccnc1C1=CCCCNC1`: the Score in assay [1] stood at 0. Moreover, the IC50 stood at 0.167 µM in assay [2] and 0.044 µM in assay [3]. In assay [4], this compound yielded a Max of 5%.

In the case of `CCCCCCOc1nccnc1[C@@H]1CN2CCCC1C2` (stereo not given in full), the Score in assay [1] turned out to be 0. Moreover, the figures for the 50% inhibitory concentration (IC50) in assay [2] and in assay [3] were 0.18 µM and 0.12 µM, respectively. The Max in assay [4] was found to be 4%.

Turning to `Clc1nccnc1C1CN2CCC1CC2` (stereo not given), the Score in assay [1] was 1.2. Moreover, the IC50 in assay [2] amounted to 0.056 µM; in assay [3], 0.18 µM. In assay [5], the minimal effective dose was found to be 10 mg/kg. In addition, the Max in assay [4] stood at 13%.

Regarding `CCCCCSc1nccnc1C1CN2CCC1CC2` (stereo not given), in assay [1], the Score was 0. Also, the IC50 in assay [2] was found to be 0.0007 µM; in assay [3], 0.0011 µM. Also, the Max in assay [4] turned out to be 7%.

`c1cnc(C2CN3CCC2CC3)cn1` (stereo not given): the Score in assay [1] came out at 1.4. In addition, the IC50 was 0.004 µM in assay [2] and 0.074 µM in assay [3]. Moreover, the minimal effective dose in assay [5] was 0.1 mg/kg. The compound further came in with a Max in assay [4] of 80%.

Compound `COc1nccnc1C1CN2CCC1CC2` (stereo not given) yielded a Score in assay [1] of 0. In addition, the IC50 in assay [2] was 0.072 µM; in assay [3], 0.111 µM. Besides, in assay [4], the Max worked out at 1%.

In the case of `CCCCCCOc1nccnc1[C@@H]1CN2CCC1CC2`, the Score in assay [1] came to 0. For the same compound, the IC50 in assay [2] was 0.0025 µM; in assay [3] it was 0.0037 µM. Also, in assay [4], the Max is recorded as 33%.

Source of the values: ChEMBL document CHEMBL1128691, “Functionally selective M1 muscarinic agonists. 3. Side chains and azacycles contributing to functional muscarinic selectivity among pyrazinylazacycles” (J Med Chem, 1995).
